From the supplement of paper PMC10307832

Legend:
Assay in all cases: relative viability (nuclei count vs DMSO), 5 days (fraction); higher = more cells survive
[1] = tested on: 201T
In short: (§1)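 After 5 days of treatment, lung cancer cells in 1536-well plates were fixed and stained in a single step (final 0.05% Triton X-100, 1% formaldehyde, 1 ug/ml Hoechst) and their nuclei counted on 4× images. Treatment had been applied by pin tool the day after seeding as one drug alone or as a fixed anchor-drug dose with five library-drug doses (not always all listed) in √10 steps. Relative viability is the nuclei count of treated wells divided by that of vehicle wells, and values are medians of duplicate plates.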

[2] = tested on: BEN
In short: as §1

[3] = tested on: HCC-366
In short: as §1

[4] = tested on: HCC-78
In short: as §1

[5] = tested on: LOU-NH91
In short: as §1

[6] = tested on: LU99A
In short: as §1

[7] = tested on: NCI-H1355
In short: as §1

[8] = tested on: NCI-H1395
In short: as §1

[9] = tested on: NCI-H1734
In short: as §1

[10] = tested on: NCI-H1975
In short: as §1

[11] = tested on: NCI-H2085
In short: as §1

[12] = tested on: NCI-H2087
In short: as §1

[13] = tested on: NCI-H2126
In short: as §1

[14] = tested on: NCI-H2228
In short: as §1

[15] = tested on: NCI-H322M
In short: as §1

[16] = tested on: NCI-H358
In short: as §1

[17] = tested on: NCI-H647
In short: as §1

[18] = tested on: NCI-H727
In short: as §1

[19] = tested on: PC-14
In short: as §1

[20] = tested on: SK-LU-1
In short: as §1

[21] = tested on: SK-MES-1
In short: as §1

[22] = tested on: UMC-11
In short: as §1

[23] = tested on: HCC-44
In short: as §1

Work on Oc1nc(-c2ccc(C(F)(F)F)cc2)nc2c1CSCC2 [XAV939] + Cc1nc(Nc2ncc(C(=O)Nc3c(C)cccc3Cl)s2)cc(N2CCN(CCO)CC2)n1 [Dasatinib] (partner 0.075 µM) yielded a relative viability ([1]; first compound 0.08 µM) of 0.432, a relative viability ([1]; first compound 0.253 µM) of 0.385 and a relative viability ([1]; first compound 0.8 µM) of 0.443. For the same compound, the relative viability ([1]; first compound 2.53 µM) was 0.366, the relative viability ([2]; first compound 0.08 µM) was 0.294 and the relative viability ([2]; first compound 0.253 µM) was 0.299. It also gave a relative viability ([2]; first compound 0.8 µM) of 0.32, a relative viability ([2]; first compound 2.53 µM) of 0.287 and a relative viability ([3]; first compound 0.08 µM) of 0.598. It also gave a relative viability ([3]; first compound 0.253 µM) of 0.589, a relative viability ([3]; first compound 0.8 µM) of 0.824 and a relative viability ([3]; first compound 2.53 µM) of 0.598. The relative viability ([4]; first compound 0.08 µM) was 0.37, the relative viability ([4]; first compound 0.253 µM) was 0.398 and the relative viability ([4]; first compound 0.8 µM) was 0.338. It also gave a relative viability ([4]; first compound 2.53 µM) of 0.399, a relative viability ([5]; first compound 0.08 µM) of 0.519 and a relative viability ([5]; first compound 0.253 µM) of 0.5. The relative viability ([5]; first compound 0.8 µM) was 0.501, the relative viability ([5]; first compound 2.53 µM) was 0.526 and the relative viability ([6]; first compound 0.08 µM) was 0.503. It also gave a relative viability ([6]; first compound 0.253 µM) of 0.56, a relative viability ([6]; first compound 0.8 µM) of 0.591 and a relative viability ([6]; first compound 2.53 µM) of 0.457. For the same compound, the relative viability ([7]; first compound 0.08 µM) was 0.569, the relative viability ([7]; first compound 0.253 µM) was 0.495 and the relative viability ([7]; first compound 0.8 µM) was 0.507. The relative viability ([7]; first compound 2.53 µM) was 0.356, the relative viability ([8]; first compound 0.08 µM) was 0.4 and the relative viability ([8]; first compound 0.253 µM) was 0.378. It also gave a relative viability ([8]; first compound 0.8 µM) of 0.381, a relative viability ([8]; first compound 2.53 µM) of 0.458 and a relative viability ([9]; first compound 0.08 µM) of 0.501. The relative viability ([9]; first compound 0.253 µM) was 0.476, the relative viability ([9]; first compound 0.8 µM) was 0.419 and the relative viability ([9]; first compound 2.53 µM) was 0.357. It also gave a relative viability ([10]; first compound 0.08 µM) of 0.305, a relative viability ([10]; first compound 0.253 µM) of 0.264 and a relative viability ([10]; first compound 0.8 µM) of 0.286. For the same compound, the relative viability ([10]; first compound 2.53 µM) was 0.234, the relative viability ([11]; first compound 0.08 µM) was 0.288 and the relative viability ([11]; first compound 0.253 µM) was 0.196. The relative viability ([11]; first compound 0.8 µM) was 0.285, the relative viability ([11]; first compound 2.53 µM) was 0.204 and the relative viability ([12]; first compound 0.08 µM) was 1.11. For the same compound, the relative viability ([12]; first compound 0.253 µM) was 0.623, the relative viability ([12]; first compound 0.8 µM) was 0.891 and the relative viability ([12]; first compound 2.53 µM) was 0.689. For the same compound, the relative viability ([13]; first compound 0.08 µM) was 0.544, the relative viability ([13]; first compound 0.253 µM) was 0.403 and the relative viability ([13]; first compound 0.8 µM) was 0.405. The relative viability ([13]; first compound 2.53 µM) was 0.33, the relative viability ([14]; first compound 0.08 µM) was 0.496 and the relative viability ([14]; first compound 0.253 µM) was 0.426. It also gave a relative viability ([14]; first compound 0.8 µM) of 0.473, a relative viability ([14]; first compound 2.53 µM) of 0.382 and a relative viability ([15]; first compound 0.08 µM) of 0.241. For the same compound, the relative viability ([15]; first compound 0.253 µM) was 0.254, the relative viability ([15]; first compound 0.8 µM) was 0.227 and the relative viability ([15]; first compound 2.53 µM) was 0.22. For the same compound, the relative viability ([16]; first compound 0.08 µM) was 0.16, the relative viability ([16]; first compound 0.253 µM) was 0.166 and the relative viability ([16]; first compound 0.8 µM) was 0.175. For the same compound, the relative viability ([16]; first compound 2.53 µM) was 0.172, the relative viability ([17]; first compound 0.08 µM) was 0.164 and the relative viability ([17]; first compound 0.253 µM) was 0.207. For the same compound, the relative viability ([17]; first compound 0.8 µM) was 0.201, the relative viability ([17]; first compound 2.53 µM) was 0.147 and the relative viability ([18]; first compound 0.08 µM) was 0.332. It also gave a relative viability ([18]; first compound 0.253 µM) of 0.452, a relative viability ([18]; first compound 0.8 µM) of 0.442 and a relative viability ([18]; first compound 2.53 µM) of 0.405. For the same compound, the relative viability ([19]; first compound 0.08 µM) was 0.288, the relative viability ([19]; first compound 0.253 µM) was 0.252 and the relative viability ([19]; first compound 0.8 µM) was 0.204. The relative viability ([19]; first compound 2.53 µM) was 0.148, the relative viability ([20]; first compound 0.08 µM) was 0.166 and the relative viability ([20]; first compound 0.253 µM) was 0.147. For the same compound, the relative viability ([20]; first compound 0.8 µM) was 0.211, the relative viability ([20]; first compound 2.53 µM) was 0.188 and the relative viability ([21]; first compound 0.08 µM) was 0.339. The relative viability ([21]; first compound 0.253 µM) was 0.344, the relative viability ([21]; first compound 0.8 µM) was 0.392 and the relative viability ([21]; first compound 2.53 µM) was 0.284. It also gave a relative viability ([22]; first compound 0.08 µM) of 0.542, a relative viability ([22]; first compound 0.253 µM) of 0.396 and a relative viability ([22]; first compound 0.8 µM) of 0.427. The relative viability ([22]; first compound 2.53 µM) was 0.408.

For Oc1nc(-c2ccc(C(F)(F)F)cc2)nc2c1CSCC2 [XAV939] + NC(=O)Nc1cc(-c2cccc(F)c2)sc1C(=O)N[C@H]1CCCNC1 [AZD7762] (partner 0.2 µM), the relative viability ([1]; first compound 0.08 µM) was 0.781, the relative viability ([1]; first compound 0.253 µM) was 0.497 and the relative viability ([1]; first compound 0.8 µM) was 0.724. The relative viability ([1]; first compound 2.53 µM) was 0.64, the relative viability ([2]; first compound 0.08 µM) was 0.629 and the relative viability ([2]; first compound 0.253 µM) was 0.651. It also gave a relative viability ([2]; first compound 0.8 µM) of 0.619, a relative viability ([2]; first compound 2.53 µM) of 0.597 and a relative viability ([3]; first compound 0.08 µM) of 0.423. The relative viability ([3]; first compound 0.253 µM) was 0.211, the relative viability ([3]; first compound 0.8 µM) was 0.188 and the relative viability ([3]; first compound 2.53 µM) was 0.132. For the same compound, the relative viability ([23]; first compound 0.08 µM) was 0.899, the relative viability ([23]; first compound 0.253 µM) was 0.89 and the relative viability ([23]; first compound 0.8 µM) was 0.953. It also gave a relative viability ([23]; first compound 2.53 µM) of 0.872, a relative viability ([4]; first compound 0.08 µM) of 0.595 and a relative viability ([4]; first compound 0.253 µM) of 0.514. It also gave a relative viability ([4]; first compound 0.8 µM) of 0.648, a relative viability ([4]; first compound 2.53 µM) of 0.527 and a relative viability ([5]; first compound 0.08 µM) of 0.762. For the same compound, the relative viability ([5]; first compound 0.253 µM) was 0.681, the relative viability ([5]; first compound 0.8 µM) was 0.687 and the relative viability ([5]; first compound 2.53 µM) was 0.692. For the same compound, the relative viability ([6]; first compound 0.08 µM) was 0.495, the relative viability ([6]; first compound 0.253 µM) was 0.394 and the relative viability ([6]; first compound 0.8 µM) was 0.339. It also gave a relative viability ([6]; first compound 2.53 µM) of 0.32, a relative viability ([7]; first compound 0.08 µM) of 0.728 and a relative viability ([7]; first compound 0.253 µM) of 0.613. It also gave a relative viability ([7]; first compound 0.8 µM) of 0.626, a relative viability ([7]; first compound 2.53 µM) of 0.561 and a relative viability ([8]; first compound 0.08 µM) of 0.389. For the same compound, the relative viability ([8]; first compound 0.253 µM) was 0.384, the relative viability ([8]; first compound 0.8 µM) was 0.377 and the relative viability ([8]; first compound 2.53 µM) was 0.366. For the same compound, the relative viability ([9]; first compound 0.08 µM) was 0.617, the relative viability ([9]; first compound 0.253 µM) was 0.515 and the relative viability ([9]; first compound 0.8 µM) was 0.59. The relative viability ([9]; first compound 2.53 µM) was 0.51, the relative viability ([10]; first compound 0.08 µM) was 0.684 and the relative viability ([10]; first compound 0.253 µM) was 0.534. It also gave a relative viability ([10]; first compound 0.8 µM) of 0.504, a relative viability ([10]; first compound 2.53 µM) of 0.516 and a relative viability ([11]; first compound 0.08 µM) of 1.07. The relative viability ([11]; first compound 0.253 µM) was 0.876, the relative viability ([11]; first compound 0.8 µM) was 0.896 and the relative viability ([11]; first compound 2.53 µM) was 0.881. It also gave a relative viability ([12]; first compound 0.08 µM) of 1.29, a relative viability ([12]; first compound 0.253 µM) of 1.2 and a relative viability ([12]; first compound 0.8 µM) of 1.22. The relative viability ([12]; first compound 2.53 µM) was 1.31, the relative viability ([13]; first compound 0.08 µM) was 1.04 and the relative viability ([13]; first compound 0.253 µM) was 0.912. For the same compound, the relative viability ([13]; first compound 0.8 µM) was 0.943, the relative viability ([13]; first compound 2.53 µM) was 0.882 and the relative viability ([15]; first compound 0.08 µM) was 0.573. For the same compound, the relative viability ([15]; first compound 0.253 µM) was 0.45, the relative viability ([15]; first compound 0.8 µM) was 0.539 and the relative viability ([15]; first compound 2.53 µM) was 0.495. For the same compound, the relative viability ([16]; first compound 0.08 µM) was 0.476, the relative viability ([16]; first compound 0.253 µM) was 0.438 and the relative viability ([16]; first compound 0.8 µM) was 0.344. The relative viability ([16]; first compound 2.53 µM) was 0.448, the relative viability ([17]; first compound 0.08 µM) was 0.489 and the relative viability ([17]; first compound 0.253 µM) was 0.351. The relative viability ([17]; first compound 0.8 µM) was 0.319, the relative viability ([17]; first compound 2.53 µM) was 0.412 and the relative viability ([18]; first compound 0.08 µM) was 0.514. For the same compound, the relative viability ([18]; first compound 0.8 µM) was 0.626, the relative viability ([18]; first compound 2.53 µM) was 0.783 and the relative viability ([19]; first compound 0.08 µM) was 0.352. It also gave a relative viability ([19]; first compound 0.253 µM) of 0.333, a relative viability ([19]; first compound 0.8 µM) of 0.304 and a relative viability ([19]; first compound 2.53 µM) of 0.345.
